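Cells were grown in 96-well plates and exposed to each compound for 48 hours at five concentrations; endpoints were interpolated linearly between bracketing concentrations, or set to the highest concentration if not reached. GI50 marks 50% less growth.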 The source made the active and inactive calls. Rule as the data show it: active = GI50 up to about 1.1 µM and inactive = higher.
Columns and labels:
Experiment in all cases: NCI-60 cell line screen, 48 h
[1] = system: 786-0
[2] = system: A498
[3] = system: A549
[4] = system: ACHN
[5] = system: BT-549
[6] = system: CAKI-1
[7] = system: CCRF-CEM
[8] = system: COLO 205
[9] = system: DLD-1
[10] = system: DMS-114
[11] = system: DMS-273
[12] = system: DU-145
[13] = system: EKVX
[14] = system: HCC 2998
[15] = system: HCT-116
[16] = system: HCT-15
[17] = system: HL-60
[18] = system: HOP-18
[19] = system: HOP-62
[20] = system: HOP-92
[21] = system: HT-29
[22] = system: Hs-578T
[23] = system: IGROV-1
[24] = system: K562
[25] = system: KM-20L2
[26] = system: KM12
[27] = system: LOX IMVI
[28] = system: LXFL 529
[29] = system: M14
[30] = system: M19-MEL
[31] = system: MCF7
[32] = system: MDA-MB-231
[33] = system: MDA-MB-435
[34] = system: MDA-N
[35] = system: MOLT-4
[36] = system: Malme-3M
[37] = system: NCI-H226
[38] = system: NCI-H23
[39] = system: NCI-H460
[40] = system: NCI-H522
[41] = system: NCI/ADR-RES
[42] = system: OVCAR-3
[43] = system: OVCAR-4
[44] = system: OVCAR-5
[45] = system: OVCAR-8
[46] = system: PC-3
[47] = system: RPMI-8226
[48] = system: RXF 393
[49] = system: SF-268
[50] = system: SF-295
[51] = system: SF-539
[52] = system: SK-MEL-28
[53] = system: SK-MEL-2
[54] = system: SK-MEL-5
[55] = system: SK-OV-3
[56] = system: SN12C
[57] = system: SNB-19
[58] = system: SNB-75
[59] = system: SNB-78
[60] = system: SR
[61] = system: SW-620
[62] = system: T47D
[63] = system: TK-10
[64] = system: U-251
[65] = system: UACC-257
[66] = system: UACC-62
[67] = system: UO-31
[68] = system: XF498

Cc1nc(N)nc(N)c1-c1ccc(Cl)c(Cl)c1 [METOPRINE]
GI50 [1]: 0.273 µM (active) | GI50 [2]: 21.6 µM (inactive) | GI50 [3]: 0.0325 µM (active) | GI50 [4]: 0.495 µM (active) | GI50 [5]: 21 µM (inactive) | GI50 [6]: 5.18 µM (inactive) | GI50 [7]: 0.432 µM (active) | GI50 [8]: 10.4 µM (inactive) | GI50 [9]: 0.427 µM (active) | GI50 [10]: 0.149 µM (active) | GI50 [11]: 0.157 µM (active) | GI50 [12]: 1.72 µM (inactive) | GI50 [13]: 4.47 µM (inactive) | GI50 [14]: 2.91 µM (inactive) | GI50 [15]: 0.0399 µM (active) | GI50 [16]: 0.145 µM | GI50 [17]: 0.13 µM (active) | GI50 [18]: 25.8 µM (inactive) | GI50 [19]: 1.12 µM (inactive) | GI50 [20]: 7.6 µM (inactive) | GI50 [21]: 0.258 µM (active) | GI50 [22]: 4.72 µM (inactive) | GI50 [23]: 2.54 µM (inactive) | GI50 [24]: 0.0219 µM (active) | GI50 [25]: 0.94 µM (active) | GI50 [26]: 3.05 µM (inactive) | GI50 [27]: 0.054 µM (active) | GI50 [28]: 0.404 µM (active) | GI50 [29]: 0.162 µM (active) | GI50 [30]: 2.36 µM (inactive) | GI50 [31]: 0.826 µM (active) | GI50 [32]: 0.466 µM (active) | GI50 [33]: 0.356 µM (active) | GI50 [34]: 0.141 µM (active) | GI50 [35]: 0.607 µM (active) | GI50 [36]: 2.91 µM (inactive) | GI50 [37]: > 33.3 µM (inactive) | GI50 [38]: 0.378 µM (active) | GI50 [39]: 0.0239 µM (active) | GI50 [40]: 0.785 µM (active) | GI50 [41]: 1.1 µM (active) | GI50 [42]: 3.75 µM (inactive) | GI50 [43]: 37.9 µM (inactive) | GI50 [44]: 14.2 µM (inactive) | GI50 [45]: 0.603 µM (active) | GI50 [46]: 0.0785 µM (active) | GI50 [47]: 6.28 µM (inactive) | GI50 [48]: 13.2 µM (inactive) | GI50 [49]: 1 µM (active) | GI50 [50]: 0.411 µM (active) | GI50 [51]: 1.21 µM (inactive) | GI50 [52]: 4.6 µM (inactive) | GI50 [53]: 30.8 µM (inactive) | GI50 [54]: 0.409 µM (active) | GI50 [55]: 3.48 µM (inactive) | GI50 [56]: 0.664 µM (active) | GI50 [57]: 2.69 µM (inactive) | GI50 [58]: 11.5 µM (inactive) | GI50 [59]: 26.3 µM (inactive) | GI50 [60]: 0.308 µM (active) | GI50 [61]: 0.144 µM (active) | GI50 [62]: 16.9 µM (inactive) | GI50 [63]: 9.2 µM (inactive) | GI50 [64]: 0.635 µM (active) | GI50 [65]: 3.85 µM (inactive) | GI50 [66]: 0.355 µM (active) | GI50 [67]: 1.15 µM (inactive) | GI50 [68]: 34.8 µM (inactive)

Cc1c(C(=O)CC(=O)C(=O)Nc2ccc(Cl)cc2)[n+]([O-])c2ccccc2[n+]1[O-]
GI50 [1]: > 100 µM (inactive) | GI50 [2]: > 100 µM (inactive) | GI50 [3]: > 100 µM (inactive) | GI50 [4]: > 100 µM (inactive) | GI50 [6]: > 100 µM (inactive) | GI50 [7]: > 100 µM (inactive) | GI50 [8]: > 100 µM (inactive) | GI50 [9]: > 100 µM (inactive) | GI50 [10]: > 100 µM (inactive) | GI50 [11]: > 100 µM (inactive) | GI50 [13]: > 100 µM (inactive) | GI50 [15]: > 100 µM (inactive) | GI50 [16]: > 100 µM | GI50 [17]: > 100 µM (inactive) | GI50 [18]: 75 µM (inactive) | GI50 [20]: > 100 µM (inactive) | GI50 [23]: > 100 µM (inactive) | GI50 [24]: > 100 µM (inactive) | GI50 [25]: > 100 µM (inactive) | GI50 [26]: > 100 µM (inactive) | GI50 [28]: > 100 µM (inactive) | GI50 [29]: > 100 µM (inactive) | GI50 [30]: > 100 µM (inactive) | GI50 [35]: > 100 µM (inactive) | GI50 [36]: > 100 µM (inactive) | GI50 [37]: > 100 µM (inactive) | GI50 [38]: > 100 µM (inactive) | GI50 [39]: > 100 µM (inactive) | GI50 [40]: > 100 µM (inactive) | GI50 [42]: > 100 µM (inactive) | GI50 [43]: > 100 µM (inactive) | GI50 [44]: > 100 µM (inactive) | GI50 [45]: > 100 µM (inactive) | GI50 [47]: > 100 µM (inactive) | GI50 [49]: > 100 µM (inactive) | GI50 [50]: > 100 µM (inactive) | GI50 [51]: > 100 µM (inactive) | GI50 [52]: > 100 µM (inactive) | GI50 [53]: > 100 µM (inactive) | GI50 [54]: > 100 µM (inactive) | GI50 [55]: > 100 µM (inactive) | GI50 [56]: > 100 µM (inactive) | GI50 [57]: > 100 µM (inactive) | GI50 [58]: 18.7 µM (inactive) | GI50 [59]: > 100 µM (inactive) | GI50 [61]: > 100 µM (inactive) | GI50 [63]: > 100 µM (inactive) | GI50 [64]: > 100 µM (inactive) | GI50 [65]: > 100 µM (inactive) | GI50 [66]: > 100 µM (inactive) | GI50 [67]: > 100 µM (inactive) | GI50 [68]: > 100 µM (inactive)

From ChEMBL document CHEMBL1201862, “PubChem BioAssay data set” (2004)
